# Target: FadD17 (Rv3506) (Mycobacterium tuberculosis, UniProt O53551)
# Sequence (O53551 whole entry): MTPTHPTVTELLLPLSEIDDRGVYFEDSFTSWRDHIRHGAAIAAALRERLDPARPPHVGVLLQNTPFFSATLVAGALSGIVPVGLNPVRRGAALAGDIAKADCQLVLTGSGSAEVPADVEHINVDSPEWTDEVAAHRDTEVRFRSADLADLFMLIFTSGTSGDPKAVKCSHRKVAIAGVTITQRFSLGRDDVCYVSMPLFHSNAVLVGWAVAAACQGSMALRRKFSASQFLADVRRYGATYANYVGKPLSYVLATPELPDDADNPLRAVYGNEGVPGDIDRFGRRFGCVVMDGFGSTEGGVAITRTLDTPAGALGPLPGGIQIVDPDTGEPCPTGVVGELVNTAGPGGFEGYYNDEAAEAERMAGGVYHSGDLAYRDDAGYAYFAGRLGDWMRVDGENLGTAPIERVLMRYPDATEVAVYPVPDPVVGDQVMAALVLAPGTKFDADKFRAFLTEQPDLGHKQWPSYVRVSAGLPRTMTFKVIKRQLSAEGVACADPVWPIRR
smiles,measurement,value
C[C@H](/C=C/C(=O)O)[C@H]1CC[C@H]2[C@@H]3CCC4=CC(=O)CC[C@]4(C)[C@H]3CC[C@]12C [3-OCDO-acid],"preparative CoA ligation, HPLC",3-OCDO-CoA was then synthesized enzymatically from the 3-OCDO-acid using the steroid-CoA ligase FadD17

# — PMC7745731 (ACS infectious diseases, 2020)
